Test results from article PMC7380166, “How to Study the Metabolism of New Psychoactive Substances for the Purpose of Toxicological Screenings—A Follow-Up Study Comparing Pooled Human Liver S9, HepaRG Cells, and Zebrafish Larvae” (Frontiers in Chemistry, 2020).
Where two headings read alike, the source gives them in different places.

What was measured:
HepaRG cells = experiment: Incubations with HepaRG cells, metabolite identification by LC-HRMS/MS; type: in vitro ADME, human; settings: 24 h, cell culture medium, one replicate of n = 3, n.d. = not detected; for Absolute peak area, HepaRG [25 μM]: 25 μM parent NPS; for Absolute peak area, HepaRG [250 μM]: 250 μM parent NPS
zebrafish larvae = experiment: Zebrafish larvae exposure, metabolite identification by LC-HRMS/MS; settings: larvae 4 dpf, 24 h, larvae extract, one replicate of n = 3, n.d. = not detected; for Absolute peak area, Zebrafish larvae [100 µM]: 100 µM parent NPS in medium; for Absolute peak area, Zebrafish larvae [25 μM]: 25 μM 4F-MDMB-BINACA in medium
[1] = n = 2, according to literature, cited from earlier work
[2] = 3,4-DMA-NBOMe and metabolites, ref Caspar et al., 2018
[3] = 1P-LSD and metabolites, ref Wagmann et al., 2019b
[4] = 4F-PHP and metabolites, ref Wagmann et al., 2019a
[5] = ephylone and metabolites, ref Wagmann et al., 2019a

SMILES | Absolute peak area, HepaRG [25 μM] (HepaRG cells) | Absolute peak area, HepaRG [250 μM] (HepaRG cells) | Absolute peak area, Zebrafish larvae [100 µM] (zebrafish larvae) | also measured
COc1ccc(CC(C)N)cc1OC (stereo not shown) [MN1] | 4.04E+07 | 9.84E+07 | 3.29E+07 | Detection in pHLS9 [25 µM] [1, 2]: +
CCNC(=O)[C@@H]1C=C2c3cccc4c3c(cn4C(=O)CC)C[C@H]2NC1 [ML12] | – | – | 4.11E+05 | –
CCC(=O)n1cc2c3c(cccc31)C1=C[C@@H](C(=O)N(CC)CC)CN[C@@H]1C2 [ML20] | 3.19E+04 | 3.74E+06 | 3.77E+07 | Detection in pHLS9 [25 µM] [1, 3]: +
CCNC(=O)[C@@H]1C=C2c3cccc4[nH]cc(c34)C[C@H]2NC1 [ML3] | 3.89E+05 | 2.20E+06 | 3.30E+05 | –
CCCCC(C(=O)c1ccc(F)cc1)N1CCCC1=O (stereo not shown) [MP4] | – | – | 8.64E+05 | Detection in pHLS9 [25 µM] [1, 4]: +
CC1(CO)COC(=O)[C@H]1NC(=O)c1nn(CCCCF)c2ccccc12 (stereo partly shown) [MB12] | – | – | – | Absolute peak area, Zebrafish larvae [25 μM] (zebrafish larvae): 1.68E+06
COc1ccc(CC(C)NCc2ccccc2O)cc1OC (stereo not shown) [MN7] | 1.19E+07 | 1.17E+08 | 1.19E+08 | Detection in pHLS9 [25 µM] [1, 2]: +
COC(=O)C(NC(=O)c1nn(CCCCF)c2ccccc12)C(C)(C)COC1OC(C(=O)O)C(O)C(O)C1O (stereo not shown) [MB25] | – | – | – | Absolute peak area, Zebrafish larvae [25 μM] (zebrafish larvae): 1.75E+07
COc1ccccc1CN(O)C(C)Cc1ccc(OC)c(OC)c1 (stereo not shown) [MN12] | – | 4.60E+05 | 8.81E+06 | –
CCNC(=O)[C@@H]1C=C2c3cccc4c3c(cn4C(=O)CC)C[C@H]2N(C)C1 [ML17] | – | – | 1.48E+08 | Detection in pHLS9 [25 µM] [1, 3]: +
CCN(CCO)C(=O)C1C=C2c3cccc4[nH]cc(c34)CC2N(C)C1 (stereo not shown) [ML14] | 4.01E+05 | 4.63E+06 | 3.90E+06 | –
CC(C)(C)[C@H](NC(=O)c1nn(CCCCF)c2ccccc12)C(=O)O[C@@H]1O[C@H](C(=O)O)[C@@H](O)[C@H](O)[C@H]1O [MB22] | 2.56E+07 | 3.25E+07 | – | –
COC(=O)C(NC(=O)c1nn(CCCC(=O)OC2OC(C(=O)O)C(O)C(O)C2O)c2ccccc12)C(C)(C)C (stereo not shown) [MB24] | – | – | – | Absolute peak area, Zebrafish larvae [25 μM] (zebrafish larvae): 2.34E+05
CCCC(C(=O)c1ccc2c(c1)OCO2)N(O)CC (stereo not shown) [ME7] | – | 1.75E+06 | 1.10E+06 | Detection in pHLS9 [25 µM] [1, 5]: +
CCCCC(C(=O)c1ccc(F)cc1)N1CCC(=O)C1 (stereo not shown) [MP3] | – | – | 7.58E+04 | –
CCCCC(C(O[C@@H]1O[C@H](C(=O)O)[C@@H](O)[C@H](O)[C@H]1O)c1ccc(F)cc1)N1CCCC1 (stereo partly shown) [MP10] | – | 2.91E+04 | – | Detection in pHLS9 [25 µM] [1, 4]: +
CCCC(NCC)C(O)c1ccc2c(c1)OCO2 (stereo not shown) [ME5] | – | – | 7.64E+06 | Detection in pHLS9 [25 µM] [1, 5]: +
COc1ccc(CC(C)N(O)Cc2ccccc2O)cc1OC (stereo not shown) [MN9] | – | – | 3.57E+05 | –
CCN(CCOC1OC(C(=O)O)C(O)C(O)C1O)C(=O)C1C=C2c3cccc4[nH]cc(c34)CC2N(C)C1 (stereo not shown) [ML28] | – | 1.07E+05 | – | –

SMILES | Absolute peak area, HepaRG [25 μM] (HepaRG cells) | Absolute peak area, HepaRG [250 μM] (HepaRG cells) | Absolute peak area, Zebrafish larvae [100 µM] (zebrafish larvae) | also measured
CN1C[C@H](C(N)=O)C=C2c3cccc4[nH]cc(c34)C[C@H]21 [ML1] | – | 1.93E+06 | – | –
CCCCC(N)C(=O)c1ccc(F)cc1 (stereo not shown) [MP1] | 1.48E+05 | 1.82E+06 | 4.83E+05 | Detection in pHLS9 [25 µM] [1, 4]: +
CC1(C)COC(=O)[C@H]1NC(=O)c1n[nH]c2ccccc12 [MB2] | – | – | – | Absolute peak area, Zebrafish larvae [25 μM] (zebrafish larvae): 5.13E+05
CCCCC(C(O)c1ccc(F)cc1)N1CCCC1 (stereo not shown) [MP2] | 1.18E+07 | 6.41E+07 | 2.98E+07 | Detection in pHLS9 [25 µM] [1, 4]: +
CCN(CC)C(=O)C1C=C2c3cccc4[nH]cc(c34)C(O)C2NC1 (stereo not shown) [ML10] | – | – | 6.10E+04 | –
CC(O)CCC(C(O)c1ccc(F)cc1)N1CCCC1 (stereo not shown) [MP9] | 8.15E+05 | 6.48E+06 | 3.78E+07 | –
CC(CCC(C(=O)c1ccc(F)cc1)N1CCCC1)OC1OC(C(=O)O)C(O)C(O)C1O (stereo not shown) [MP11] | – | – | 1.15E+06 | Detection in pHLS9 [25 µM] [1, 4]: +
CCC(=O)n1cc2c3c(cccc31)C1=C[C@@H](C(=O)N(CC)CC)CN(C)[C@@H]1C2O (stereo partly shown) [ML24] | – | – | 3.37E+07 | –
COc1ccccc1CNC(C)Cc1ccc(O)c(O)c1 (stereo not shown) [MN2] | – | – | – | Detection in pHLS9 [25 µM] [1, 2]: +
CCCCC(C(=O)c1ccc(F)cc1)[N+]1([O-])CCCC1 (stereo not shown) [MP8] | – | 1.47E+05 | 2.50E+06 | –
CCN(CC)C(=O)[C@@H]1C=C2c3cccc4[nH]cc(c34)C[C@H]2NC1 [ML5] | 1.75E+07 | 3.37E+07 | 1.07E+07 | Detection in pHLS9 [25 µM] [1, 3]: +
COc1ccc(CC(C)NCc2ccccc2O[C@@H]2O[C@H](C(=O)O)[C@@H](O)[C@H](O)[C@H]2O)cc1OC (stereo partly shown) [MN22] | – | – | – | Detection in pHLS9 [25 µM] [1, 2]: +
CC(O)CCC(C(=O)c1ccc(F)cc1)N1CCCC1 (stereo not shown) [MP5] | 1.14E+06 | 1.07E+07 | 7.71E+06 | Detection in pHLS9 [25 µM] [1, 4]: +
CCNC(=O)[C@@H]1C=C2c3cccc4[nH]cc(c34)C[C@H]2N(C)C1 [ML4] | 3.19E+07 | 2.58E+08 | 6.17E+07 | Detection in pHLS9 [25 µM] [1, 3]: +
CCC(=O)n1cc2c3c(cccc31)C1=C[C@@H](C(=O)N(CC)CCO)CN(C)[C@@H]1C2 [ML23] | – | – | 3.31E+07 | –
CCC(=O)n1cc2c3c(cccc31)C1=C[C@@H](C(=O)O)CN(C)[C@@H]1C2 [ML8] | – | – | 1.07E+06 | –
CCN(CC)C(=O)[C@@H]1C=C2c3cccc4c3C(O)(C[C@H]2N(C)C1)C(=O)N4 (stereo partly shown) [ML18, 2−oxo−3−hydroxy LSD] | 7.00E+06 | 3.67E+06 | 6.93E+06 | Detection in pHLS9 [25 µM] [1, 3]: +
CN1C[C@H](C(=O)O)C=C2c3cccc4[nH]cc(c34)C[C@H]21 [ML2] | 5.16E+06 | 1.39E+07 | 3.63E+05 | –
CC(C)(C)[C@H](NC(=O)c1nn(CCCC(=O)O)c2ccccc12)C(=O)O [MB10] | 1.68E+05 | 8.32E+05 | – | Absolute peak area, Zebrafish larvae [25 μM] (zebrafish larvae): 5.72E+04
